One sequence from patent US9879058B2, “Use of compounds that selectively modulate astrocytic release of substances through hemichannels of connexins and pannexins, without influencing gap junctions, for the treatment of psychiatric disorders” (Universidad Andres Bello, priority 2012, dated 2018) can be followed below.

One assay has as its system Sprague Dowley rats. The assay is described as follows: Auditory fear conditioning with microinfusion into the basolateral amygdala. It counts as in vivo, rat. The method, then: A. Animals: All procedures involving animals were in accordance to NIH guidelines and with approval of the bioethical committee of the Universidad Andrés Bello. Sprague Dowley rats (˜60 d old, ˜250 g) were caged individually at 22° C., 12/12 h light/dark cycle. The rats remained in their home box throughout the study, and were removed only briefly for drug microinfusion. B. Drugs: TAT-Cx43L2 ([…] (SEQ ID NO: 1), LifeTein, South Plainfield, N.J., USA, >90% purity) was dissolved in PBS to yield final solutions of 1 mM, 100 μM, 10 μM, 1 μM or 100 nM. Unless stated otherwise, the concentration used for microinfusions of TAT-Cx43L2 was 1 mM. As a control, TAT-Cx43L2^H126K/I130N was used at 1 mM. Gap27 (AnaSpec, Fremont, Calif., USA, >95% purity) and Gap27 scramble were dissolved to a final concentration of 1 mM. For the recovery cocktail, 100 mM glutamate (Sigma), D-serine (200 nM), glutamine (100 mM), ATP (100 μM), lactate (10 mM) and glycine (100 nM) were diluted in sterile saline. C. Apparatus: All behavioral essays were performed in a sound attenuating cubicle. Conditioning and tone testing were conducted in different chambers. For conditioning, rats were placed in a Plexiglas chamber with a metal grid floor (40 cm×40 cm×40 cm). The chamber was dimly illuminated by a red light. For testing, rats were placed in a different Plexiglas chamber without the metal grid (60 cm×40 cm) dimly illuminated by a white light bulb. A video camera was mounted at the top of each chamber to allow digital recording throughout the experiments. D. Surgery and histology: Under ketamine/xylazine anesthesia ([…], respectively), rats were stereotaxically implanted with bilateral 22-gauge stainless steel cannulas aimed 1.0 mm above the basolateral amygdala (3.0 mm posterior to Bregma, 5.3 mm lateral to the midline, and 8.0 mm ventral to the skull surface (Paxinos, G., Watson, C. (1998). The Rat Brain in Stereotaxic Coordinates; Press A, editor. San Diego). The cannulas were fixed with acrylic dental cement and secured by 4 skull screws. A stylus was placed inside the guide cannula to prevent clogging. Rats were given at least 7 days to recover before experimental procedures began.
In all experiments, stylus was removed from the guide cannula, and a 28-gauge injection cannula was inserted through the guide cannula, extending 1.0 mm beyond its tip into the BLA. Drugs were infused slowly via the injection cannula, connected by PE20 tubing to Hamilton microsyringes driven by a microinfusion pump. Infusions were of 0.25 μl per hemisphere at a rate of 0.32 μl/min. Following drug infusion, injecting cannulaes were left in place for 10 minutes to allow drug diffusion away from the cannula tip. Cannula placement and maximal diffusion was verified by infusing 0.5 μl of India ink in a group of 5 rats. The maximal diffusion spread observed included only lateral and basal amygdala nuclei. At the end of all experiments, animals were anesthetized as above and perfused intracardially with saline, 4% buffered paraformaldehyde. Brains were extracted and postfixed in 30% sucrose until density equaled that of sucrose. […] Animals with histological lesions beyond the size of the cannula tip and guide cannula diameter were excluded from the analysis.
E. Behavioral procedures: The conditioning is based on the animal learning that a previously neutral stimulus (a conditioned stimulus, CS; e.g. an innocuous sound) becomes predictive of a stressful stimulus (unconditioned stimulus, US; e.g. footshock). In all of experiments, rats were habituated to handling during the 7 recovery days and also habituated to the training and testing chambers for 3 days, 10 min each day. On the conditioning day, the animals were left in the chamber for 3 minutes before beginning of the training. Each training session consisted of 3 CS-US pairings in 30 s intervals. […]

Assay [1] deals with T1, Cx43 gap junction channels (Rattus norvegicus, UniProt P08050).
T1 construct: endogenous in cells; host or cells: primary hippocampal astrocytes of newborn (PN1) rats
T1 sequence (P08050 whole entry): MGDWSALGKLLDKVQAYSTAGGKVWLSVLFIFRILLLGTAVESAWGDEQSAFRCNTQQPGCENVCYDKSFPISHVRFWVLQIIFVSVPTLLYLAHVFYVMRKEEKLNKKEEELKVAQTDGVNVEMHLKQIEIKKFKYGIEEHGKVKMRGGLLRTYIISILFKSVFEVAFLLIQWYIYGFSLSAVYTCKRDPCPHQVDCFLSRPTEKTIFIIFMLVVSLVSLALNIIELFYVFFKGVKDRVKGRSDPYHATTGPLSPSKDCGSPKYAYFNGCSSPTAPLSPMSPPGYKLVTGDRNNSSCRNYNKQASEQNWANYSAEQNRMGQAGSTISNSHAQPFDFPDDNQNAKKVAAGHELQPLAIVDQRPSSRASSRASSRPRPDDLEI
The assay is described as follows: Lucifer yellow dye coupling in astroglial cultures. The assay is classed as cell-based. The method, then: F. Immunohistochemistry: Brain slices previously fixed in buffered 4% paraformaldehyde and maintained in 30% sucrose were mounted in gelatin coated glass slides. After rinsing with PBS, slices were blocked and permeabilized with 1% bovine serum albumin (BSA, Sigma-Aldrich), and 3% Triton X-100 in PBS for 1 h at room temperature. After rinsing again, sections were incubated overnight at 4° C. with the primary anti-Cx43 antibody (Sigma). Afterwards, sections were rinsed with PBS and incubated for 1 h at 37° C. with Alexa Fluor® 488-conjugated secondary antibody. To identify neurons and astrocytes, sections were incubated overnight at 4° C. with either monoclonal anti-MAP2 (M 4402, Sigma-Aldrich, St-Louis, Mo.) for neurons or polyclonal anti-GFAP (Sigma-Aldrich, St-Louis, Mo.) for astrocytes. Sections were washed and incubated for 1 h at 37° C. with Alexa Fluor® 568-conjugated secondary antibodies. Finally, slides were washed and permanently mounted using ProLong® (invitrogen). Staining specificity was assayed by incubation of sections in the absence of the primary antibody. Samples were examined using laser scanning confocal microscopy on a Fluoview FV1000 (Olympus). G. Primary Cell Cultures: G.1. Astrocyte cultures: Primary astrocyte cultures were prepared from hippocampus of newborn (PN1) rats. […]
J. Dye Coupling: Astrocytes plated on glass coverslips were bathed with recording medium (HCO3-free F-12 medium buffered with 10 mM HEPES, pH 7.2) and intercellular communication mediated by gap junctions was tested by evaluating the transfer to neighboring cells of Lucifer yellow (LY) (Sigma-Aldrich, St-Louis, Mo.) microinjected into one cell. […] The coupling index was calculated as the mean number of cells to which the dye spread. K. Data Analysis: Data were expressed as Mean+SD. Statistical differences were assessed by unpaired student's t-test (Mann-Whitney) and by one-way analysis of variance (ANOVA) for multiple comparisons, followed by Dunns post hoc test, and considered significant when p<0.05. p-values in the text are written as either <0.01% or <0.05%.

The mark [2] stands for this setting: 1 mM into BLA 10 min before training.

“Also recorded” adds a separate entry of the source. No end group written: not given here.

Take “YGRKKRRQRRRDGANVDMHLKQIEIKKFKYGIEEHGK [TAT-Cx43L2, synthetic cell-permeable peptide corresponding to the Cx43L2 region (aa 119-144) of the cytoplasmic loop of Cx43]”: in the assay with Sprague Dowley rats (setting [2]), the “long term fear memory (freezing to tone) 24 h after training” value is “strongly impaired fear conditioning memory consolidation; also recorded: complete amnesia” and the “short term memory (freezing to tone between the 3 pairings during training)” value is reported as “not affected; also recorded: unaffected short term memory”. In the assay with Sprague Dowley rats (microinfusion into BLA), the “concentration dependence of amnesic effect” value is “concentration dependent” and the “lower concentration still capable of inducing amnesic effects” value was 10 nM. For the same sequence, the “memory when injected 6 h after training” value in the assay on Sprague Dowley rats (microinjection into BLA 6 h after learning) is listed as “had no effects on memory when injected 6 h after training; also recorded: no memory deficits”. Moreover, the “learning capacity on retraining” value in the assay with Sprague Dowley rats (retrained 48 h after the initial conditioning) is given as “recovered their capacity to learn; also recorded: recovered their learning capacity”. Besides, the “astroglial coupling (intracellular transfer of LY)” value in assay [1] (1 mM, 10 min incubation, hippocampal astroglial cultures) is given as “did not affect astroglial coupling”. In addition, in assay [1] (n=3), the astrocyte coupling incidence result is “had no effect on astrocyte coupling incidence” and the astrocyte coupling index result is “had no effects on astrocyte coupling index”.
